The values that follow come from paper PMC4627342 (Oncotarget, 2015).

Read-outs that look alike come from different tables or passages of the source.

In one series the test system is liver. The series is described as follows: Swiss mice hepatotoxicity model. To be noted: after 2 weeks, liver tissues.
The next series is described as follows: in vivo. To be noted: both, NIH, mouse, iv.
A short description of series [1]: Adverse events in the hepatobiliary system in patients with HER2-overexpressing metastatic breast cancer. To be noted: text count, cohort of 39 patients.
Series [2] deals with HepG2 cells. In words: Doxorubicin and rhodamine 123 accumulation by flow cytometry in parental cells. It counts as cell-based, human. To be noted: in the presence of lapatinib. As for the experimental part:
The human hepatocellular carcinoma cell line HepG2 was obtained from American Type Culture Collection (ATCC). The Dox-selected derivative ABCB1-overexpressing HepG2/Adr subline was established as previous study. All cells were grown in DMEM supplemented with 10% fetal bovine serum, 100 units/mL streptomycin sulfate and 100 units/mL penicillin G sulfate, and maintained at 37°C in the presence of 5% CO2. HepG2/Adr cells were cultured with 1.2 μM Dox to maintain its ABCB1-overexpressing properties. All cells were grown in drug-free culture medium for more than 2 weeks before assay.
The accumulation of doxorubicin or rhodamine 123 in HepG2 and HepG2/Adr cells was measured as previously described. Verapamil, a known ABCB1 inhibitor, was used as a positive control.

The next series relates to ABCB1. The series is described as follows: ABCB1 expression by Western blot and qRT-PCR. It counts as cell-based, human. To be noted: HepG2/Adr cells, lapatinib for 24, 48 or 72 h.
In series [3] the test system is HepG2 cells. In words: MTT cytotoxicity of doxorubicin with lapatinib, parental cells. It is filed as cell-based, human. To be noted: lapatinib added 1 h before doxorubicin. As for the experimental part: (§1) We collected the cells and seeded them at a density of 3.0 × 10^3 cells per well in 96-well plates. […] After 68 h, MTT (5 mg/mL, 20 μL) was added into each well and cultured for another 4 h. Then the medium was discarded and each well was added with 120 μL DMSO. Finally, optical density was measured at 540 nm with background subtraction at 670 nm by Model 550 Microplate Reader (Bio-Rad, Hercules, CA, USA).

The test system of another series is Swiss mice liver tissues. In words: Ex vivo doxorubicin accumulation in Swiss mice liver tissues. To be noted: 2.5 μM lapatinib, 10 μM doxorubicin.
Series [4] deals with T1, ABCB1-overexpressing HepG2/Adr cells (Homo sapiens, UniProt P08183).
T1 construct: The Dox-selected derivative ABCB1-overexpressing HepG2/Adr subline was established as previous study; endogenous in cells; host or cells: HepG2/Adr (doxorubicin-selected subline of human HepG2)
The series is described as follows: MTT cytotoxicity of doxorubicin with lapatinib, resistant cells. It counts as cell-based. To be noted: lapatinib added 1 h before doxorubicin. How it is done:
as §1

The conditions of series [5]: human pharmacokinetic studies ref 35, 36; cited from earlier work.

T1 sequence (P08183 whole entry): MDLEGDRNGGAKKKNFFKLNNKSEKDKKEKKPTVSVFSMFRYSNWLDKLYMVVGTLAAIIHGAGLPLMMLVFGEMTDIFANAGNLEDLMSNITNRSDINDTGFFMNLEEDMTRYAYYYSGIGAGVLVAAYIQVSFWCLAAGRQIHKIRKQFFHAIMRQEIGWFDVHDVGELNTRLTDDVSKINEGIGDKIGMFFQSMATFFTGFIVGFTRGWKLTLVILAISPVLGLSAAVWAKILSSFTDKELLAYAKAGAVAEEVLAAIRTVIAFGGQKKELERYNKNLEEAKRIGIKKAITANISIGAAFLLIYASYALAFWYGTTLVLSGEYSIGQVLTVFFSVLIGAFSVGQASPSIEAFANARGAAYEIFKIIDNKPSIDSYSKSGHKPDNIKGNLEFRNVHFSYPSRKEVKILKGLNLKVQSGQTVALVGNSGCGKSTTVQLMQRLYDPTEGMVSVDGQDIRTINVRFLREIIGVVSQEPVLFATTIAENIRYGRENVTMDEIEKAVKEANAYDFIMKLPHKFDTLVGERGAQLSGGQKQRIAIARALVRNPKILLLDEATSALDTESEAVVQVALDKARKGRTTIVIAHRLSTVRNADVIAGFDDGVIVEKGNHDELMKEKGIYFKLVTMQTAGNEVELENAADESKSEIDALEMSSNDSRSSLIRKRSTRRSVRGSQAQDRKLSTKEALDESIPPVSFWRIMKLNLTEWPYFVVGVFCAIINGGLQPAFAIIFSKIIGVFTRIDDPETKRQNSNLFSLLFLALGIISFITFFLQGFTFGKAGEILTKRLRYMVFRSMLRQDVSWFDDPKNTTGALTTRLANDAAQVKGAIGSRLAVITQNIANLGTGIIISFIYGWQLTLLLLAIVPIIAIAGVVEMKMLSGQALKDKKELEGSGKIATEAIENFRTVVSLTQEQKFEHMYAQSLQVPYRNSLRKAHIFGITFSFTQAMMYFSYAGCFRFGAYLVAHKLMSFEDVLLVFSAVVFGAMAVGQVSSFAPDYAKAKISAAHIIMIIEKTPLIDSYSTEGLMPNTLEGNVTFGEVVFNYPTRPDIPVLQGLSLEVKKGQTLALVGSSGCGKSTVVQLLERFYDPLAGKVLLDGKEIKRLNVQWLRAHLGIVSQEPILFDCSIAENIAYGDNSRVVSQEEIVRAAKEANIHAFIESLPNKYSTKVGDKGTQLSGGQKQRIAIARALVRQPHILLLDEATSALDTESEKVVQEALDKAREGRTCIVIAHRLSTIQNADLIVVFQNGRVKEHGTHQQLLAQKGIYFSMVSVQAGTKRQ
Method for Swiss mice liver tissues: The fresh normal liver tissue adjacent to the hepatocellular carcinoma retrieved from Sun Yat-sen university cancer center was used for the drug accumulation assay ex vivo. Informed consent was obtained from the patients before tissue collection. The work was approved by the ethics review committee at Sun Yat-sen University (Guangzhou, China). Liver tissues of 50-100 mg were cut into small pieces (1mm^3) and cultured in DMEM containing 15% fetal bovine serum at 37°C. […] Subsequently, the tissues were then collected, centrifuged and washed twice with cold PBS containing 10 μM verapamil. Then, liver tissues were resuspended in 1 ml/100 mg tissues lysis solution which contained 0.3 mol/l HCl and 60% ethanol (1:1) and was homogenized at 4°C and then centrifuged at 12 000 × g [43]. The supernatant was removed and its fluorescence signal was measured by a spectrofluorometer at λex 470 nm and λem 590 nm. Simultaneously, the standard curve of doxorubicin was made with the same condition. The doxorubicin accumulation in liver tissues (μg/g) was calculated according to the fluorescence value using a standard curve.
Method for in vivo: Blood was collected from the retro-orbital plexus at designated time points and they were kept in cold heparin coated glass tubes. The blood from 1 male and 1 female was pooled and plasma was isolated and stored at −80°C until analysis. […] Pharmacokinetic parameters was determined from the concentration-time data by non compartment model using the 3P97 software (Practical Pharmacokinetics Software, Beijing, China).

Take `COc1cccc2c1C(=O)c1c(O)c3c(c(O)c1C2=O)C[C@@](O)(C(=O)CO)C[C@@H]3O[C@H]1C[C@H](N)[C@H](O)[C@H](C)O1` [Doxorubicin]: in the series with liver, the “liver histology (HE staining)” value was “mild central venous hyperemia, Hepatic cord disorder and vacuolar degeneration”. In the series “in vivo” (in vivo, 10 mg/kg), the AUC(0-inf) was 2960 ± 878 ng·h/mL, the AUC(0-t) was 2920 ± 841 ng·h/mL and the Vd was determined as 0.00339 ± 0.00121 L. In addition, in “in vivo” (plasma, 10 mg/kg), the MRT was found to be 7.51 ± 1.08 h and the half-life was 5.2 ± 0.75 h.

`CC(=O)O[C@H]1C(=O)[C@@]2(C)[C@H]([C@H](OC(=O)c3ccccc3)[C@]3(O)C[C@H](OC(=O)[C@H](O)[C@@H](NC(=O)c4ccccc4)c4ccccc4)C(C)=C1C3(C)C)[C@]1(OC(C)=O)CO[C@@H]1C[C@@H]2O` [Paclitaxel, paclitaxel]: the “patients who showed grade 1 abnormal hepatic function” value in series [1] is listed as 2 patients. In the series with liver, the “liver histology (HE staining)” value is reported as “mild liver damage”. Besides, in “in vivo” (in vivo, 18 mg/kg), the MRT worked out at 1.42 ± 0.08 h, the Vd is 0.015 ± 0.00128 L, the clearance was 0.139 mL/min and the half-life is 1.24 ± 0.06 h.

In the case of `CS(=O)(=O)CCNCc1ccc(-c2ccc3ncnc(Nc4ccc(OCc5cccc(F)c5)c(Cl)c4)c3c2)o1` [Lapatinib], in the series with HepG2 cells [2], the “intracellular accumulation of doxorubicin” value is reported as “not altered” and the “intracellular accumulation of rhodamine 123” value is “not altered”. Also, the “ABCB1 RNA and protein expressions” value with ABCB1 is on record as “not significantly altered”. For the same compound, the “effect on cytotoxicity of doxorubicin” value in the series on HepG2 cells [3] is reported as “not in the parental HepG2 cells”. In addition, the “increase of fluorescent index of doxorubicin” value in the series on Swiss mice liver tissues was found to be 2.46 fold. Also, the “effect on cytotoxicity of doxorubicin” value in series [4] was “enhance the cytotoxicity effect of doxorubicin in HepG2/Adr cells in a concentration-dependent manner”. Besides, in series [5], the half-life result is given as “approximately 17 h” and the “highest peak plasma lapatinib concentration” value was “roughly 3 μM”.

Broadly, the AUC(0-inf) is total exposure, with the tail of the curve extrapolated. Usually AUC(0-t) stands for exposure summed from dosing to a finite time, without extrapolation to infinity. Higher therefore signals high exposure. The term Vd denotes a proportionality between amount in the body and measured concentration, not a real space. Higher therefore signals wide distribution into tissue. As usually defined, the MRT is a mean duration of stay, worked out from the concentration-time curve. Broadly, the half-life is the time in which the quantity being followed falls by half. Usually clearance stands for the rate of elimination divided by the concentration. High values mean a high capacity for elimination, low ones a low capacity for elimination.
